Columns and labels:
[1] = tested on: intraperitoneal macrophages (CD11b+F4/80+ cells); experiment: Production of IFNβ after cGAMP stimulation of intraperitoneal macrophages; format: cell-based, mouse; conditions: macrophages derived from Alg1-KO mice versus WT; 3, 10 or 30 μM; 24 and 48 hours
Procedure: To C57BL/6N mice and Alg1-KO mice, a 3% thioglycolate medium was intraperitoneally administered at 1 mL/body. After 3 days, 5 mL of 5 mM EDTA/PBS was injected for intraperitoneal lavage and the drain was collected. After haemolysis treatment, the proportion of CD11b^+F4/80^+ cells among intraperitoneal invasive cells was calculated on a flow cytometer.
The cells were seeded in a 96-well plate so that the CD11b^+F4/80^+ cells are 2×10^5 cells/well, the culture supernatant was discarded after 1 hour, the cells were washed once with the medium and the medium containing 3, 10 or 30 μM cyclic GMP-AMP (cGAMP), respectively was added. The culture supernatant was collected after 24 and 48 hours and the amount of IFN-β in the culture supernatants was measured.

TLR7 = experiment: Production of type I IFN after administration of polyuridine (serum ELISA); format: in vivo; conditions: Alg1-KO mice versus WT; 50 μg/mouse i.v. with DOTAP; 2 and 6 hours after administration
Procedure: To C57BL/6 mice (WT mice) and Alg1-KO mice, polyuridine was intravenously administered together with a liposome transfection reagent, DOTAP. The dosage was 50 μg/mouse. Serum IFNα and IFNβ were measured by ELISA at 2 and 6 hours after administration.

| Substance | production of IFNβ (culture supernatant) [1] | production of IFNα (serum) (TLR7) | production of IFNβ (serum) (TLR7) |
| --- | --- | --- | --- |
| cyclic GMP-AMP [cGAMP] | increased compared to WT | – | – |
| polyuridine | – | increased compared to WT | increased compared to WT |

From patent US11638744B2, “Immunity enhancing agent for cancer by Allergin-1 antagonist” (ONO PHARMACEUTICAL CO., LTD., priority 2015, dated 2023)
